Among the data in ChEMBL document CHEMBL5291721, “A preclinical secondary pharmacology resource illuminates target-adverse drug reaction associations of marketed drugs” (Nat Commun, 2023) are AC50 values, retold here.

Assay [1] concerns the target Sodium-dependent noradrenaline transporter (Homo sapiens, UniProt P23975).
The target of assay [2] is Beta-2 adrenergic receptor (Homo sapiens, UniProt P07550).
Assay [3] has as its target T1, Muscarinic acetylcholine receptor M1 (Homo sapiens, UniProt P11229).
T1 sequence (P11229 whole entry): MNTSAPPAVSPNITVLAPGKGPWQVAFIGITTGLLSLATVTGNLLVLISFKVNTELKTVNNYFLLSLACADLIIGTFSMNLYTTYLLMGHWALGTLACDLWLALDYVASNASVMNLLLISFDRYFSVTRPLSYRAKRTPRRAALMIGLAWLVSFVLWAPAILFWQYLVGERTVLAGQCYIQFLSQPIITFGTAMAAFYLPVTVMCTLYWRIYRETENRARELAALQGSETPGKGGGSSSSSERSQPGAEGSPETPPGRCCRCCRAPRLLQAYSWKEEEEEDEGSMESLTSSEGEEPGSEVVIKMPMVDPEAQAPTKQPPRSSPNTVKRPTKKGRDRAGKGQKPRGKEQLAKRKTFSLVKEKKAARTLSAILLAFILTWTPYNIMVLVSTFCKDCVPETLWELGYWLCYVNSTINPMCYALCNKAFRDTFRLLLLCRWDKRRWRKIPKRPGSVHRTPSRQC
The class given is functional.

Assay [4] concerns the target Histamine H3 receptor (Homo sapiens, UniProt Q9Y5N1).
Assay [5] concerns the target T2, Neuropeptide Y receptor type 2 (Homo sapiens, UniProt P49146).
T2 sequence (P49146 whole entry): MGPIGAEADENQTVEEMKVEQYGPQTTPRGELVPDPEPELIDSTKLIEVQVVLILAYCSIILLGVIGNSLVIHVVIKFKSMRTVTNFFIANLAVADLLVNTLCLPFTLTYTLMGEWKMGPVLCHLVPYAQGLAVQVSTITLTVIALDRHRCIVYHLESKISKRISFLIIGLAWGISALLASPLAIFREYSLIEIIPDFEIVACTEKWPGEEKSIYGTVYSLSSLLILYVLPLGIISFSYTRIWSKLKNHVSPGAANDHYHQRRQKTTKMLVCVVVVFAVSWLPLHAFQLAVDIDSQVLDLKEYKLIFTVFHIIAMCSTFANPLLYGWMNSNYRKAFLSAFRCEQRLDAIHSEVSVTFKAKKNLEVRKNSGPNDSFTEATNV

The target in assay [6] is Neurotensin receptor type 1 (Homo sapiens, UniProt P30989).
In assay [7] the target is Voltage-dependent N-type calcium channel subunit alpha-1B (Rattus norvegicus, UniProt Q02294). The class given is functional.
The target of assay [8] is T3, Progesterone receptor (Homo sapiens, UniProt P06401).
T3 sequence (P06401 whole entry): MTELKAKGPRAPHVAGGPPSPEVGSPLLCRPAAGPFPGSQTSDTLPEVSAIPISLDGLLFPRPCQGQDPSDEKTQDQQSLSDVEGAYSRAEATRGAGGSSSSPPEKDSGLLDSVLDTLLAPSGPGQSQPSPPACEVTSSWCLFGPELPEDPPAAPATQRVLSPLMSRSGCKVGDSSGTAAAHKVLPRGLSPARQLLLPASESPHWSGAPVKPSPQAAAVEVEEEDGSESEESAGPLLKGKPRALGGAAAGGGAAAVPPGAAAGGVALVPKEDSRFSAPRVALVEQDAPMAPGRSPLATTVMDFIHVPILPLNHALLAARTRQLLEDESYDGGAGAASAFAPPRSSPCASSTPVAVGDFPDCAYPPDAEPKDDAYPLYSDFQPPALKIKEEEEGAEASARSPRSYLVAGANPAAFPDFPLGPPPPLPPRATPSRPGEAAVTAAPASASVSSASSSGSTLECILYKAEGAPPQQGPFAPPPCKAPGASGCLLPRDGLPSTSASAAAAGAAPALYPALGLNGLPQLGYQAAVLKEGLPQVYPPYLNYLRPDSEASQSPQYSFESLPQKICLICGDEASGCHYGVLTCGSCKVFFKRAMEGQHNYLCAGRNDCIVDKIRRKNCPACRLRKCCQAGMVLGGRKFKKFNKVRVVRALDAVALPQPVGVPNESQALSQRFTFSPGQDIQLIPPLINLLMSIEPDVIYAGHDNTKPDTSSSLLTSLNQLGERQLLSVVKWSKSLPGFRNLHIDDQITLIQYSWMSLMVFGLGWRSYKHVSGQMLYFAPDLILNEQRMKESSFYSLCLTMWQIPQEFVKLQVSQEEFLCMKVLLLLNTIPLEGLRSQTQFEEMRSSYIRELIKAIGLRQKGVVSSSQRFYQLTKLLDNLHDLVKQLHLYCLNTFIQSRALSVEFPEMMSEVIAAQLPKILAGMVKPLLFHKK
Type of assay: functional.

In assay [9] the target is T3, Progesterone receptor. The class given is functional. This is another data set of the same source.
Assay [10] concerns the target 5-hydroxytryptamine receptor 2A (Homo sapiens, UniProt P28223). The class given is functional, cell-based.

Structures are written as SMILES.

The term AC50 denotes the concentration giving half of the maximal activity seen.
Further: assay procedure not described here.

Chain of Beta-2 adrenergic receptor (P07550 whole entry): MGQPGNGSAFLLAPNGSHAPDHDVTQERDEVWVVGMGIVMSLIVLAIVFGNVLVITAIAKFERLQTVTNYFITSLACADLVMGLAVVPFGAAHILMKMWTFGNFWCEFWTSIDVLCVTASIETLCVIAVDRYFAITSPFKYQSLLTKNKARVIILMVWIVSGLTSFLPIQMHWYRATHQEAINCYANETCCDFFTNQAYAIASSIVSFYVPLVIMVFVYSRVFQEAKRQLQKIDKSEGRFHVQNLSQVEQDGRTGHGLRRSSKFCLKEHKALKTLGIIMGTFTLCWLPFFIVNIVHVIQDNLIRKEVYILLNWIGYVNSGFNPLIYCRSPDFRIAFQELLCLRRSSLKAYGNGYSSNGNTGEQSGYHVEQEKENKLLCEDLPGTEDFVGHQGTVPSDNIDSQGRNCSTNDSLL
Chain of 5-hydroxytryptamine receptor 2A (P28223 whole entry): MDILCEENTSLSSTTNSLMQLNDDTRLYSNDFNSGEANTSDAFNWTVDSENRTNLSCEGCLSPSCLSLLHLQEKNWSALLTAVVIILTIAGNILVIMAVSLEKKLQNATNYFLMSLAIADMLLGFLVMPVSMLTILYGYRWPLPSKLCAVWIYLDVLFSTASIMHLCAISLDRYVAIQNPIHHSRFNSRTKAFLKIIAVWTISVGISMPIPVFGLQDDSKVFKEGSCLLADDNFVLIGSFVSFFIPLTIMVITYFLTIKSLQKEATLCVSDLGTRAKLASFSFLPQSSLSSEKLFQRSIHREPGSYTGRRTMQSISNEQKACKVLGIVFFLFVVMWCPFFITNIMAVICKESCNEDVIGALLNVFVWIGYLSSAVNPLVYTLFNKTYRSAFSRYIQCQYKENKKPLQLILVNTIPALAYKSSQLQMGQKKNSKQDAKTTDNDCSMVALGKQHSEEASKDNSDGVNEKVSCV
Chain of Sodium-dependent noradrenaline transporter (P23975 whole entry): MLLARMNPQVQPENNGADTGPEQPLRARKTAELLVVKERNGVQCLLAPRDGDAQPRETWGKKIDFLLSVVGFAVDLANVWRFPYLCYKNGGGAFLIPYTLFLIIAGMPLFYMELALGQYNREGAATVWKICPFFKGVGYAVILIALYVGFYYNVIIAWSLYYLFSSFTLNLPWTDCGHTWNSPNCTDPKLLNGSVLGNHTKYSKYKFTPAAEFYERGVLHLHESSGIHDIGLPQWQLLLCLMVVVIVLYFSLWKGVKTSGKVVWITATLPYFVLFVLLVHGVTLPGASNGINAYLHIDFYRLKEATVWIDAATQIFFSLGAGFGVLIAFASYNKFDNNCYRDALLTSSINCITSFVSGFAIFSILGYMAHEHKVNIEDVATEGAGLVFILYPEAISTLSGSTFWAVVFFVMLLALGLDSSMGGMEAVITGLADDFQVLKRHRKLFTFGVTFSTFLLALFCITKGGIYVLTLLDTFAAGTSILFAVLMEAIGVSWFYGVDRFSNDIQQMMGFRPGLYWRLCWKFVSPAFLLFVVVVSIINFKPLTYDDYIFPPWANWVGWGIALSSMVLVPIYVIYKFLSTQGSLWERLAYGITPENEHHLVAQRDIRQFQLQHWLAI
Chain of Histamine H3 receptor (Q9Y5N1 whole entry): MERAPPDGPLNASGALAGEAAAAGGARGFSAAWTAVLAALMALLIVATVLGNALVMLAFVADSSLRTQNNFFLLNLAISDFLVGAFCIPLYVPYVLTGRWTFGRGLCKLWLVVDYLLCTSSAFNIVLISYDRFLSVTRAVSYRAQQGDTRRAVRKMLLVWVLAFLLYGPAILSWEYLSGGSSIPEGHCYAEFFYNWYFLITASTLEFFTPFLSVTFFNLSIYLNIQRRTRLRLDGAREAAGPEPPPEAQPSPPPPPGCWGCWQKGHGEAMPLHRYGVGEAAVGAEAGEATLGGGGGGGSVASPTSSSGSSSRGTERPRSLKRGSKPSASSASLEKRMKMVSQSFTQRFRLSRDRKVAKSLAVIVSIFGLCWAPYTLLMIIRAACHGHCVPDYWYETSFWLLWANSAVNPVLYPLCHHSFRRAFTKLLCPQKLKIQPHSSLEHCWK
Chain of Neurotensin receptor type 1 (P30989 whole entry): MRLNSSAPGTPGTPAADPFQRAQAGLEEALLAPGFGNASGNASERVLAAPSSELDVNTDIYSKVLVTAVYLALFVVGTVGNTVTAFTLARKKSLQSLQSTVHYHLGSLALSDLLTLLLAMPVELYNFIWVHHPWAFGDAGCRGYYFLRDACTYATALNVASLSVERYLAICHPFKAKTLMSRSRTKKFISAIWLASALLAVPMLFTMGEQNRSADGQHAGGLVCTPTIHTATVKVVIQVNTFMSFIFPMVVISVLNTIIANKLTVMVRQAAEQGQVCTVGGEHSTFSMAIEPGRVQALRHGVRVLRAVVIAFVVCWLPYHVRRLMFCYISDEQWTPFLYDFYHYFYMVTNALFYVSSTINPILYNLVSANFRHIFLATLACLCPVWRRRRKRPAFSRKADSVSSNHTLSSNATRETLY
Chain of Voltage-dependent N-type calcium channel subunit alpha-1B (Q02294 whole entry): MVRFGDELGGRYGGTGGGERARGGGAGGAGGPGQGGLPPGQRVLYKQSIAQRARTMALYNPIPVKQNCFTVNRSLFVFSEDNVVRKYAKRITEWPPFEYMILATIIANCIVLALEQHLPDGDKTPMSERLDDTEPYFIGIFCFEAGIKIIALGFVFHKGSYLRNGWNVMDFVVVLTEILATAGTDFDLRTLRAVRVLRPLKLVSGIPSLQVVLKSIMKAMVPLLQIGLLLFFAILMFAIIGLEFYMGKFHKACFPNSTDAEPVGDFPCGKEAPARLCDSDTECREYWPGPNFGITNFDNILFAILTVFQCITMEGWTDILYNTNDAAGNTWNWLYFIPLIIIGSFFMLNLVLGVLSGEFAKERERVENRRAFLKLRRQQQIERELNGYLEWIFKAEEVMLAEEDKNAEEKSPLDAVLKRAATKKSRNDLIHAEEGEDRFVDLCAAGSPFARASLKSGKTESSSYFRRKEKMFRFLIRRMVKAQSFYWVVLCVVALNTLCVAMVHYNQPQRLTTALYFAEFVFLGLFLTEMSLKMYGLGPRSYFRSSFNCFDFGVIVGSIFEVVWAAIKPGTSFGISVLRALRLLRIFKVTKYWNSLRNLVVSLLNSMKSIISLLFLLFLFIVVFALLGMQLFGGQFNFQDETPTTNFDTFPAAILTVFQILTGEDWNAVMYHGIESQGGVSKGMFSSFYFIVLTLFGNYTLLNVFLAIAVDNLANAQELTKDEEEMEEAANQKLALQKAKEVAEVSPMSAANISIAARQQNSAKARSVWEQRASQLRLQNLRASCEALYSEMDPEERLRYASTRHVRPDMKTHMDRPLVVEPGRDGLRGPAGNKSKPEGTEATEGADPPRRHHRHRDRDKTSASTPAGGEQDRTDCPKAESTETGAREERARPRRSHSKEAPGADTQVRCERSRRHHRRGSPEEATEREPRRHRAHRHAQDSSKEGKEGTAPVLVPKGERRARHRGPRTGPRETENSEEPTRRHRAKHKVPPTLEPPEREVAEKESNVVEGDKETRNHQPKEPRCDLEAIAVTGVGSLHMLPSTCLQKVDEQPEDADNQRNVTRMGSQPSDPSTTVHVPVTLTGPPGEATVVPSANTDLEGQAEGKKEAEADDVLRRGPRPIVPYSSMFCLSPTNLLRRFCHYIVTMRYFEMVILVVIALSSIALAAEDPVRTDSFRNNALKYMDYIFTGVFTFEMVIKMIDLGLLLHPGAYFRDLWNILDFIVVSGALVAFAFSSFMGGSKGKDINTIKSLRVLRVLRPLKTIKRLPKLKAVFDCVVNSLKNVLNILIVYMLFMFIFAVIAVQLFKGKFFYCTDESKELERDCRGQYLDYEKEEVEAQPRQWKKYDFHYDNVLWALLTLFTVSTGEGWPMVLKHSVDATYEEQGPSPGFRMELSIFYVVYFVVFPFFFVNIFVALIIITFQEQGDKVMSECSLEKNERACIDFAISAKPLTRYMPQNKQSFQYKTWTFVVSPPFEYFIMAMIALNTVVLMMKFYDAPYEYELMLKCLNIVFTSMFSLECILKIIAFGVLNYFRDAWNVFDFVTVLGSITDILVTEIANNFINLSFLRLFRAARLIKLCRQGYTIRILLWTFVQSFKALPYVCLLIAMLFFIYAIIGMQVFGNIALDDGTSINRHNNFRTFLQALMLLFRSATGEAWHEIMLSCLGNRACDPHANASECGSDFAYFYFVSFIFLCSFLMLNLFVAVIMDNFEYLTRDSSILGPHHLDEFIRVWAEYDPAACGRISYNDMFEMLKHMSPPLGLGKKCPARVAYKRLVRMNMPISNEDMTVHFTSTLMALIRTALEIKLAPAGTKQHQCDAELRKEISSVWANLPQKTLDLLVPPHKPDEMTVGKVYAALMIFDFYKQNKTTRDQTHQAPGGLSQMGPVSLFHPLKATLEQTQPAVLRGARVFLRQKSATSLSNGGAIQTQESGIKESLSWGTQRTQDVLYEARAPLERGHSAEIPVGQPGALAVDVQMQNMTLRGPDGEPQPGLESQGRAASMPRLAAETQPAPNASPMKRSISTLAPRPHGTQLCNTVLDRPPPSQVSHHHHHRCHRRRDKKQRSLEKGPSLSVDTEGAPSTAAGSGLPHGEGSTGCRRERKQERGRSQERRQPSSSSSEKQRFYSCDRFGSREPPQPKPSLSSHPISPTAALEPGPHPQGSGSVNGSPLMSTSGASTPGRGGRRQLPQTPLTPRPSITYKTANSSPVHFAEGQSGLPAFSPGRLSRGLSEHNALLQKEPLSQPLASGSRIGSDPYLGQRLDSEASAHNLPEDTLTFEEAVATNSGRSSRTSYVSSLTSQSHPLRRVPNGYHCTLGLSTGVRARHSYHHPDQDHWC

On to `C[C@]12CC[C@H](O)CC1=CC[C@@H]1[C@@H]2CC[C@]2(C)C(c3cccnc3)=CC[C@@H]12` [ABIRATERONE], for which the AC50 in assay [1] is greater than 30 µM; in assay [2], greater than 30 µM; in assay [3] it was greater than 10 µM; in assay [4] it was greater than 10 µM.

Turning to `O=C(Nc1nc(-c2cc(Cl)cs2)c(N2CCN(C3CCCCC3)CC2)s1)c1cnc(N2CCC(C(=O)O)CC2)c(Cl)c1` [AVATROMBOPAG], the half-maximal activity concentration (AC50) in [1], in assay [2], in assay [5], in assay [3], in assay [4] and in assay [6] was greater than 10 µM throughout. The AC50 in assay [7] is greater than 10 µM.

With `CN(C)C(=O)Oc1cc(OC(=O)N(C)C)cc(C(O)CNC(C)(C)C)c1` (stereo not given) [BAMBUTEROL], the concentration at half-maximal activity (AC50) in [1] was greater than 30 µM; in assay [2], 9.7 µM; in assay [8] it was greater than 30 µM; in assay [4], greater than 30 µM; in assay [9], greater than 30 µM.

As for `CO/N=C(\C(=O)N[C@@H]1C(=O)N2C(C(=O)[O-])=C(C[n+]3cccc4c3CCC4)CS[C@H]12)c1csc(N)n1` [CEFPIROME], the AC50 in assay [10] and in [3] was greater than 30 µM throughout.

Turning to `NS(=O)(=O)c1cc(C2(O)NC(=O)c3ccccc32)ccc1Cl` (stereo not given) [CHLORTHALIDONE], the half-maximal activity concentration (AC50) in [1], in [2], in [8] and in assay [9] was greater than 10 µM each time.

For `CC[C@H]1OC(=O)[C@H](C)[C@@H](O[C@H]2C[C@@](C)(OC)[C@@H](O)[C@H](C)O2)[C@H](C)[C@@H](O[C@@H]2O[C@H](C)C[C@H](N(C)C)[C@H]2O)[C@](C)(OC)C[C@@H](C)C(=O)[C@H](C)[C@@H](O)[C@]1(C)O` [CLARITHROMYCIN], the half-maximal activity concentration (AC50) in [1], in assay [8], in [4] and in assay [9] was greater than 30 µM throughout.

As to `Oc1c(I)cc(Cl)c2cccnc12` [CLIOQUINOL], the AC50 in assay [10] and in assay [3] was greater than 30 µM in each case.

Take `C[C@@H]1CCC[C@H](C)N1NC(=O)c1ccc(Cl)c(S(N)(=O)=O)c1` [CLOPAMIDE]: the concentration at half-maximal activity (AC50) in [10], in assay [1], in [2], in assay [8], in assay [3] and in assay [4] was greater than 30 µM throughout. The molecule further yielded an AC50 in assay [9] greater than 30 µM.

As to `O=c1oc2ccccc2c(O)c1Cc1c(O)c2ccccc2oc1=O` [DICUMAROL], the concentration at half-maximal activity (AC50) in assay [1], in [2], in assay [8] and in assay [9] was greater than 10 µM throughout.

With `O=C(O)CSCC(=O)NC1CCSC1=O` (stereo not given) [ERDOSTEINE], the AC50 in [10], in assay [1], in assay [2], in assay [8], in assay [3] and in [4] was greater than 30 µM in each case. Besides, the AC50 in [9] was greater than 30 µM.

Regarding `COc1cccc(N(C)C(=S)Oc2ccc3c(c2)CCCC3)n1` [LIRANAFTATE], the AC50 in [10], in assay [1], in assay [2], in assay [8], in assay [3] and in assay [4] was greater than 30 µM in each case. The half-maximal activity concentration (AC50) in assay [9] is greater than 30 µM.

As for `C#C[C@]1(O)CC[C@H]2[C@@H]3CCc4cc(OC)ccc4[C@H]3CC[C@@]21C` [MESTRANOL], the AC50 was 10.9 µM in assay [1], greater than 10 µM in assay [2] and 0.096 µM in assay [8].

For `N=C(N)c1ccc2cc(OC(=O)c3ccc(N=C(N)N)cc3)ccc2c1` [NAFAMOSTAT], the half-maximal activity concentration (AC50) in assay [10] is greater than 30 µM; in assay [8] it was greater than 30 µM; in assay [3], 8.7 µM; in assay [4] it was 7.9 µM.

Regarding `CNC(=O)Oc1ccc2c(c1)[C@]1(C)CCN(C)[C@@H]1N2C` [PHYSOSTIGMINE], the AC50 in assay [1] was greater than 30 µM; in [2], greater than 30 µM; in [8], greater than 30 µM; in assay [4], 16 µM; in [9], greater than 30 µM.

Take `O=C(O)c1cc(O)c2c3nc4ccccc4oc-3cc(=O)c2n1` [PIRENOXINE]: the concentration at half-maximal activity (AC50) in assay [10] was greater than 30 µM; in assay [1] it was greater than 30 µM; in [2] it was greater than 30 µM; in assay [8] it was greater than 30 µM; in [3], 6.7 µM; in [4], greater than 30 µM. The same molecule gave an AC50 in assay [9] greater than 30 µM.

With `NS(=O)(=O)c1cc(C(=O)O)cc(N2CCCC2)c1Oc1ccccc1` [PIRETANIDE], the AC50 in assay [10], in assay [1], in assay [2], in assay [8], in [3] and in [4] was greater than 30 µM throughout. The molecule also yielded a half-maximal activity concentration (AC50) in assay [9] greater than 30 µM.

`CNCCCC1c2ccccc2C=Cc2ccccc21` [PROTRIPTYLINE]: the AC50 in [8] and in assay [9] was greater than 10 µM throughout.

As to `CC(C)=CCOc1ccc(/C=C/C(=O)c2ccc(OCC=C(C)C)cc2OCC(=O)O)cc1` [SOFALCONE], the half-maximal activity concentration (AC50) is greater than 30 µM in [10]; 26 µM in [1]; 22 µM in assay [2]; greater than 30 µM in [8]; greater than 30 µM in [3]; greater than 30 µM in [4]. The same molecule showed an AC50 in assay [9] of 9.4 µM.

As for `O=C(CCCN1CCC2(CC1)C(=O)NCN2c1ccccc1)c1ccc(F)cc1` [SPIPERONE], the concentration at half-maximal activity (AC50) in assay [8] is greater than 30 µM; in [3] it was greater than 30 µM; in [4] it was 9.2 µM; in assay [9], greater than 30 µM.

For `CCSc1ccc2c(c1)N(CCCN1CCN(C)CC1)c1ccccc1S2` [THIETHYLPERAZINE], the half-maximal activity concentration (AC50) in [10] was greater than 30 µM; in assay [1], 9.6 µM; in assay [8] it was greater than 30 µM; in [3] it was 16 µM; in assay [9], greater than 30 µM.

In the case of `CN(C)c1cc(NC(=O)CNC(C)(C)C)c(O)c2c1C[C@H]1C[C@H]3[C@H](N(C)C)C(O)=C(C(N)=O)C(=O)[C@@]3(O)C(O)=C1C2=O` [TIGECYCLINE], the concentration at half-maximal activity (AC50) in [10] is greater than 30 µM; in assay [1] it was greater than 30 µM; in assay [2], greater than 30 µM; in assay [8], greater than 30 µM; in assay [3], 27 µM; in assay [4], greater than 30 µM. The molecule also showed an AC50 in assay [9] greater than 30 µM.

Turning to `OCCN1CCN(CC/C=C2/c3ccccc3Sc3ccc(Cl)cc32)CC1` [ZUCLOPENTHIXOL], the AC50 was greater than 10 µM in assay [10]; 17.4 µM in assay [1]; greater than 10 µM in assay [2]; greater than 10 µM in assay [8]; greater than 10 µM in [3]; greater than 10 µM in [9].
